Laboratory results from ChEMBL document CHEMBL4177579, “Eudesmane sesquiterpenes from Chinese liverwort are substrates of Cdrs and display antifungal activity by targeting Erg6 and Erg11 of Candida albicans” (Bioorg Med Chem, 2017).
In brackets after ≈: the same amount, converted by molar mass.

Assays:
Candida albicans [1] = test: Antifungal activity against Candida albicans SC5314 incubated for 48 hrs by alamar blue assay; format: functional; settings: SC5314, 48 h
Candida albicans [2] = test: Antifungal activity against CDR1 deficient Candida albicans DSY448 incubated for 48 hrs by alamar blue assay; format: functional; settings: DSY448, 48 h
Candida albicans [3] = test: Antifungal activity against CDR2 deficient Candida albicans DSY653 incubated for 48 hrs by alamar blue assay; format: functional; settings: DSY653, 48 h
Candida albicans [4] = test: Antifungal activity against MDR1 deficient Candida albicans DSY465 incubated for 48 hrs by alamar blue assay; format: functional; settings: DSY465, 48 h
Candida albicans [5] = test: Antifungal activity against CDR1 and CDR2 deficient Candida albicans DSY654 incubated for 48 hrs by alamar blue assay; format: functional; settings: DSY654, 48 h
Candida albicans [6] = test: Inhibition of ERG6/ERG11 in CDR1 and CDR2 deficient Candida albicans DSY654 assessed as feedback mechanism based up-regulation of ERG6 mRNA expression at 16 ug/ml incubated for 10 hrs by qPCR method relative to untreated control
Candida albicans [7] = test: Drug accumulation in CDR1 and CDR2 deficient Candida albicans DSY654 at 16 ug/ml incubated for 10 hrs by HPLC method relative to wild type Candida albicans SC5314; format: ADME, organism-based; settings: in vivo
Candida albicans [8] = test: Inhibition of the yeast-to-hyphal transition in CDR1 and CDR2 deficient Candida albicans DSY654 incubated for 5 days grown in liquid RPMI 1640 medium by microphotography; format: functional, organism-based
Candida albicans [9] = test: Inhibition of ERG6/ERG11 in CDR1 and CDR2 deficient Candida albicans DSY654 assessed as induction of alteration in sterol composition by measuring zymosterol level at 16 ug/ml incubated for 10 hrs by GC-MS method (reference value: 2.78 +/- 0.53%); design: scale not given: the % may be the effect or the level left
Candida albicans [10] = test: Inhibition of ERG6/ERG11 in CDR1 and CDR2 deficient Candida albicans DSY654 assessed as induction of alteration in sterol composition by measuring ergosterol level at 16 ug/ml incubated for 10 hrs by GC-MS method (reference value: 55.60 +/- 0.29%); design: scale not given: the % may be the effect or the level left
Candida albicans [11] = test: Drug accumulation in Candida albicans SC5314 at 16 ug/ml incubated for 10 hrs in presence of 16 ug/ml CDR inhibitor RD by HPLC method relative to untreated control; format: ADME, organism-based; settings: in vivo
Candida albicans [12] = test: Inhibition of ERG6/ERG11 in CDR1 and CDR2 deficient Candida albicans DSY654 assessed as induction of alteration in sterol composition by measuring fecosterol level at 16 ug/ml incubated for 10 hrs by GC-MS method (reference value: 8.36 +/- 0.3%); design: scale not given: the % may be the effect or the level left
Candida albicans [13] = test: Inhibition of ERG6/ERG11 in CDR1 and CDR2 deficient Candida albicans DSY654 assessed as feedback mechanism based up-regulation of ERG11 mRNA expression at 16 ug/ml incubated for 10 hrs by qPCR method relative to untreated control
Candida albicans [14] = test: Inhibition of ERG6/ERG11 in CDR1 and CDR2 deficient Candida albicans DSY654 assessed as induction of alteration in sterol composition by measuring lanosterol level at 16 ug/ml incubated for 10 hrs by GC-MS method (reference value: 1.63 +/- 0.28%); design: scale not given: the % may be the effect or the level left
Candida albicans [15] = test: Inhibition of the yeast-to-hyphal transition in CDR1 and CDR2 deficient Candida albicans DSY654 incubated for 5 days grown in solid SD medium by microphotography; format: functional, organism-based

SMILES	MIC80 (Candida albicans [1]) [µg/mL]	MIC80 (Candida albicans [2]) [µg/mL]	MIC80 (Candida albicans [3]) [µg/mL]	MIC80 (Candida albicans [4]) [µg/mL]	MIC80 (Candida albicans [5]) [µg/mL]	fold change (FC) (Candida albicans [6])	fold change (FC) (Candida albicans [7])	inhibition (Candida albicans [8])	Activity (Candida albicans [9]) [%]	Activity (Candida albicans [10]) [%]	fold change (FC) (Candida albicans [11])	Activity (Candida albicans [12]) [%]	fold change (FC) (Candida albicans [13])	Activity (Candida albicans [14]) [%]	inhibition (Candida albicans [15])
C=C(C)[C@@H]1C[C@@]2(C(C)=O)C[C@@H](O)C[C@@]2(C)C[C@@H]1O	> 128	> 128	> 128	> 128	> 128										
C=C1CCC[C@@]2(C)C[C@@H]3OC(=O)[C@@H](C)[C@@H]3C[C@H]12	> 128	> 128	> 128	> 128	> 128										
C=C1CCC[C@@]2(C)C[C@@H]3OC(=O)[C@]4(CO4)[C@@H]3C[C@H]12	> 128	> 128	> 128	> 128	> 128										
CC1(C)C[C@H](O)C[C@@]2(C)OC(=O)C=C12 [LOLIOLIDE]	> 128	> 128	> 128	> 128	> 128										
C=C(CO)[C@H]1CC[C@]2(C)CCCC(=C)[C@H]2[C@H]1O	> 128	> 128	> 128	> 128	64 (≈ 271 µM)										
C=C1CCC[C@@]2(C)C[C@@]3(O)OC(=O)C(C)=C3C[C@H]12	> 128	> 128	> 128	> 128	64 (≈ 258 µM)										
C=C1CCC[C@@]2(C)C[C@@H]3OC(=O)[C@](CO)(OCC)[C@@H]3C[C@H]12	> 128	> 128	> 128	> 128	> 128										
C=C1CCC[C@@]2(C)C[C@H](O)[C@H](C(=C)C)C[C@H]12	> 128	> 128	> 128	> 128	64 (≈ 290 µM)										
C=C1CCC[C@@]2(C)C[C@@H]3OC(=O)[C@@](C)(O)[C@@H]3C[C@H]12	> 128	> 128	> 128	> 128	32 (≈ 128 µM)										
CC1=CC(=O)C[C@@]2(C)CC[C@](O)(C(C)C)C[C@H]12	> 128	> 128	> 128	> 128	> 128										
CC1=CCC[C@@]2(C)C[C@@H]3OC(=O)[C@H](C)[C@@H]3C[C@H]12	> 128	> 128	> 128	> 128	> 128										
C=C1CCC[C@@]2(C)C[C@@H]3OC(=O)C(=C)[C@@H]3C[C@H]12	> 128	> 128	> 128	> 128	16 (≈ 68.9 µM)	9.3	4.95	Dose-dependent effect	10.8	33.7	10.4	6.16	2.7	17.2	Dose-dependent effect
